Data from PubChem BioAssay AID192 (DTP/NCI, 2004).
Inconclusive results and toxic doses are left out.

System: BDF1 mice, B16 melanoma ip, median survival T/C
Test: NCI In Vivo Anticancer Drug Screen. Data for tumor model B16 Melanoma (intraperitoneal) in B6D2F1 (BDF1) mice
Conditions: endpoint: median survival time, higher = longer survival
Procedure: The antitumor activity of compounds was measured in mice bearing transplantable tumors. Survival or tumor size were measured and the results are expressed as the measurement made in the treated group (T) divided by the measurement made in the vehicle treated control group (C). The tumor model used in this assay is B16 Melanoma (intraperitoneal) in B6D2F1 (BDF1) mice

[1] = dose: 20.0 mg/kg/injection, schedule: Q01DX009 (ip), vehicle: saline with Tween-80
[2] = dose: 40.0 mg/kg/injection, schedule: Q01DX009 (ip), vehicle: saline with Tween-80
[3] = dose: 100.0 mg/kg/injection, schedule: Q01DX009 (ip), vehicle: Klucel (hydroxypropylcellulose) (HPC)
[4] = dose: 200.0 mg/kg/injection, schedule: Q01DX009 (ip), vehicle: Klucel (hydroxypropylcellulose) (HPC)
[5] = dose: 400.0 mg/kg/injection, schedule: Q01DX009 (ip), vehicle: Klucel (hydroxypropylcellulose) (HPC)
[6] = dose: 50.0 mg/kg/injection, schedule: Q01DX009 (ip), vehicle: Klucel (hydroxypropylcellulose) (HPC)
[7] = dose: 6.25 mg/kg/injection, schedule: Q01DX009 (ip), vehicle: saline with Tween-80
[8] = dose: 12.5 mg/kg/injection, schedule: Q01DX009 (ip), vehicle: saline with Tween-80
[9] = dose: 25.0 mg/kg/injection, schedule: Q01DX009 (ip), vehicle: saline with Tween-80
[10] = dose: 50.0 mg/kg/injection, schedule: Q01DX009 (ip), vehicle: saline with Tween-80
[11] = dose: 50.0 mg/kg/injection, schedule: Q01DX009 (ip), vehicle: saline
[12] = dose: 100.0 mg/kg/injection, schedule: Q01DX009 (ip), vehicle: saline
[13] = dose: 200.0 mg/kg/injection, schedule: Q01DX009 (ip), vehicle: saline
[14] = dose: 0.78 mg/kg/injection, schedule: Q01DX009 (ip), vehicle: saline
[15] = dose: 1.56 mg/kg/injection, schedule: Q01DX009 (ip), vehicle: saline
[16] = dose: 3.12 mg/kg/injection, schedule: Q01DX009 (ip), vehicle: saline
[17] = dose: 6.25 mg/kg/injection, schedule: Q01DX009 (ip), vehicle: saline
[18] = dose: 100.0 mg/kg/injection, schedule: Q01DX009 (ip), vehicle: saline with Tween-80
[19] = dose: 200.0 mg/kg/injection, schedule: Q01DX009 (ip), vehicle: saline with Tween-80
[20] = dose: 400.0 mg/kg/injection, schedule: Q01DX009 (ip), vehicle: saline with Tween-80

SMILES: [Cl][Pt+2][Cl].[NH-]c1cc(Cl)c(Cl)c(Cl)c1[NH-]
- T/C (dose: 1.25 mg/kg/injection, schedule: Q01DX009 (ip), vehicle: saline with Tween-80): 98 % of control
- T/C (dose: 2.5 mg/kg/injection, schedule: Q01DX009 (ip), vehicle: saline with Tween-80): 104 % of control
- T/C (dose: 5.0 mg/kg/injection, schedule: Q01DX009 (ip), vehicle: saline with Tween-80): 103 % of control
- T/C (dose: 10.0 mg/kg/injection, schedule: Q01DX009 (ip), vehicle: saline with Tween-80): 110 % of control
- T/C [1]: 113 % of control
- T/C [2]: 117 % of control

SMILES: CCCCCCCCCCCCNC(=O)Nc1ccc(CC)cc1
- T/C [3]: 92 % of control
- T/C [4]: 100 % of control
- T/C [5]: 100 % of control

SMILES: Cc1c(Cl)cccc1NS(=O)(=O)c1ccc(Cl)cc1
- T/C (dose: 25.0 mg/kg/injection, schedule: Q01DX009 (ip), vehicle: Klucel (hydroxypropylcellulose) (HPC)): 106 % of control
- T/C [6]: 97 % of control
- T/C [3]: 99 % of control

SMILES: O=[N+]([O-])/C(=C/c1ccccc1)c1ccccc1
- T/C [7]: 104 % of control
- T/C [8]: 95 % of control
- T/C [9]: 112 % of control

SMILES: CCOC(=O)c1ccc(N)cc1
- T/C (dose: 37.5 mg/kg/injection, schedule: Q01DX009 (ip), vehicle: saline with Tween-80): 121 % of control
- T/C (dose: 37.5 mg/kg/injection, schedule: Q04DX003 (ip), vehicle: saline with Tween-80): 102 % of control
- T/C (dose: 75.0 mg/kg/injection, schedule: Q01DX009 (ip), vehicle: saline with Tween-80): 112 % of control
- T/C (dose: 75.0 mg/kg/injection, schedule: Q04DX003 (ip), vehicle: saline with Tween-80): 91 % of control
- T/C (dose: 150.0 mg/kg/injection, schedule: Q01DX009 (ip), vehicle: saline with Tween-80): 107 % of control
- T/C (dose: 150.0 mg/kg/injection, schedule: Q04DX003 (ip), vehicle: saline with Tween-80): 93 % of control

SMILES: FC(F)(F)c1ccc2c(c1)N(CCCN1CCN(CCOc3ccccc3)CC1)c1ccccc1S2
- T/C (dose: 2.0 mg/kg/injection, schedule: Q01DX009 (ip), vehicle: saline): 121 % of control

SMILES: Cc1c2cc(Cl)c3ccccc3c2c[n+]2ccccc12
- T/C (dose: 3.12 mg/kg/injection, schedule: Q01DX009 (ip), vehicle: saline with Tween-80): 110 % of control
- T/C [7]: 113 % of control
- T/C [8]: 110 % of control
- T/C [9]: 115 % of control
- T/C [10]: 115 % of control

SMILES: CO[C@@H](C=O)O[C@@H](C=O)CO
- T/C [7]: 100 % of control
- T/C [8]: 108 % of control
- T/C (dose: 12.5 mg/kg/injection, schedule: Q04DX003 (ip), vehicle: saline with Tween-80): 96 % of control
- T/C [9]: 103 % of control
- T/C (dose: 25.0 mg/kg/injection, schedule: Q01DX009 (ip), vehicle: saline): 107 % of control
- T/C (dose: 25.0 mg/kg/injection, schedule: Q04DX003 (ip), vehicle: saline with Tween-80): 108 % of control
- T/C [10]: 124 % of control
- T/C [11]: 100 % of control
- T/C (dose: 50.0 mg/kg/injection, schedule: Q04DX003 (ip), vehicle: saline with Tween-80): 102 % of control
- T/C (dose: 50.0 mg/kg/injection, schedule: Q04DX003 (ip), vehicle: saline): 104 % of control
- T/C (dose: 100.0 mg/kg/injection, schedule: Q04DX003 (ip), vehicle: saline with Tween-80): 100 % of control

SMILES: NC(=O)N1OCC(N)C1=O (centres undefined)
- T/C [11]: 95 % of control
- T/C [12]: 103 % of control
- T/C [13]: 95 % of control

SMILES: COc1cc(-c2ccc(Nc3ccccc3C(=O)O)c(OC)c2)ccc1N
- T/C [9]: 105 % of control
- T/C [10]: 104 % of control

SMILES: COC(=O)C[C@](O)(CCCC(C)(C)O)C(=O)O[C@@H]1C(OC)=C[C@]23CCCN2CCc2cc4c(cc2[C@H]13)OCO4
- T/C (dose: 0.13 mg/kg/injection, schedule: Q01DX009 (ip), vehicle: saline sonified): 107 % of control
- T/C (dose: 0.25 mg/kg/injection, schedule: Q01DX009 (ip), vehicle: saline sonified): 120 % of control
- T/C (dose: 0.25 mg/kg/injection, schedule: Q01DX009 (ip), vehicle: saline with Tween-80): 114 % of control
- T/C (dose: 0.98 mg/kg/injection, schedule: Q04DX003 (ip), vehicle: saline): 121 % of control
- T/C (dose: 1.0 mg/kg/injection, schedule: Q01DX009 (ip), vehicle: saline with Tween-80): 111 % of control
- T/C (dose: 1.4 mg/kg/injection, schedule: Q04DX003 (ip), vehicle: saline): 117 % of control
- T/C (dose: 2.0 mg/kg/injection, schedule: Q04DX003 (ip), vehicle: saline): 118 % of control
- T/C (dose: 2.86 mg/kg/injection, schedule: Q04DX003 (ip), vehicle: saline): 117 % of control

SMILES: C(=N/NC1=NCCN1)/c1c2ccccc2c(/C=N\NC2=NCCN2)c2ccccc12
- T/C [14]: 156 % of control
- T/C [15]: 181 % of control
- T/C [16]: 205 % of control
- T/C [17]: 225 % of control
- T/C (dose: 12.5 mg/kg/injection, schedule: Q01DX009 (ip), vehicle: saline): 294 % of control

SMILES: COc1ccc2ccccc2c1C1NC(=O)c2ccccc2N1 (centres undefined)
- T/C [6]: 106 % of control
- T/C [3]: 108 % of control
- T/C [4]: 109 % of control
- T/C [5]: 115 % of control

SMILES: CC(CN1CCN(CCOCCO)CC1)CN1c2ccccc2Sc2ccc(Cl)cc21 (centres undefined)
- T/C (dose: 0.09 mg/kg/injection, schedule: Q01DX009 (ip), vehicle: saline): 117 % of control
- T/C (dose: 0.19 mg/kg/injection, schedule: Q01DX009 (ip), vehicle: saline): 98 % of control
- T/C (dose: 0.39 mg/kg/injection, schedule: Q01DX009 (ip), vehicle: saline): 121 % of control
- T/C [14]: 104 % of control
- T/C [15]: 115 % of control
- T/C [16]: 100 % of control
- T/C [17]: 101 % of control

SMILES: CC(C)COC(=O)c1ccc(NC(=O)Nc2ccccc2Cl)cc1
- T/C [8]: 100 % of control
- T/C [9]: 93 % of control
- T/C [10]: 97 % of control

SMILES: CC[C@@H]1O[C@H]2O[C@@H](/C=C/C=C/C=C/c3oc(=O)cc(OC)c3C)[C@@H](O)[C@@]2(C)[C@]1(C)O
- T/C (dose: 0.5 mg/kg/injection, schedule: Q01DX009 (ip), vehicle: Klucel (hydroxypropylcellulose) (HPC)): 94 % of control
- T/C (dose: 1.0 mg/kg/injection, schedule: Q01DX009 (ip), vehicle: Klucel (hydroxypropylcellulose) (HPC)): 90 % of control
- T/C (dose: 2.0 mg/kg/injection, schedule: Q01DX009 (ip), vehicle: Klucel (hydroxypropylcellulose) (HPC)): 92 % of control

SMILES: COC(CCCl)c1ccc(Cl)cc1 (centres undefined)
- T/C [10]: 102 % of control
- T/C [18]: 97 % of control
- T/C [19]: 87 % of control

SMILES: NC(Cc1cc(Cl)c(O)c(Cl)c1)C(=O)O (centres undefined)
- T/C [12]: 94 % of control
- T/C (dose: 150.0 mg/kg/injection, schedule: Q01DX009 (ip), vehicle: saline): 100 % of control
- T/C [13]: 98 % of control

SMILES: O=CN(O)CC(=O)O.[Zn]
- T/C (dose: 5.0 mg/kg/injection, schedule: Q01DX009 (ip), vehicle: saline): 99 % of control
- T/C (dose: 10.0 mg/kg/injection, schedule: Q01DX009 (ip), vehicle: saline): 98 % of control
- T/C (dose: 20.0 mg/kg/injection, schedule: Q01DX009 (ip), vehicle: saline): 88 % of control

SMILES: [Cl][Pt+2][Cl].[NH-]c1ccc(C(=O)c2ccccc2)cc1[NH-]
- T/C [1]: 108 % of control
- T/C [2]: 113 % of control
- T/C (dose: 80.0 mg/kg/injection, schedule: Q01DX009 (ip), vehicle: saline with Tween-80): 118 % of control
- T/C (dose: 160.0 mg/kg/injection, schedule: Q01DX009 (ip), vehicle: saline with Tween-80): 114 % of control
- T/C (dose: 320.0 mg/kg/injection, schedule: Q01DX009 (ip), vehicle: saline with Tween-80): 113 % of control

SMILES: NCC(=O)NCC(=O)NC(Cc1ccc(O)cc1)C(=O)O (centres undefined)
- T/C [10]: 104 % of control
- T/C [18]: 94 % of control
- T/C [19]: 102 % of control
- T/C [20]: 95 % of control

SMILES: NC(N)=NC(N)=Nc1ccc(S(=O)(=O)O)cc1
- T/C [18]: 94 % of control
- T/C [19]: 104 % of control
- T/C [20]: 98 % of control

SMILES: Cc1[nH]c(=O)[nH]c(=O)c1[N+](=O)[O-]
- T/C [3]: 100 % of control
- T/C [4]: 95 % of control
- T/C [5]: 100 % of control

SMILES: C[n+]1ccc(Nc2ccc(NC(=O)c3ccc(Nc4cc[n+](C)c5ccc([N+](=O)[O-])cc45)cc3[N+](=O)[O-])cc2)cc1
- T/C [8]: 95 % of control
- T/C [9]: 100 % of control
